Measurements: patent US10435371B2, “Multifunctional aminoquinoline therapeutic agent” (LOHOCLA RESEARCH CORPORATION, priority 2014, dated 2019)

Experiments:
[1] = system: rats treated with Complete Freund's Adjuvant; assay: Reversal of CFA-induced neuropathic pain (von Frey mechanical pain threshold); format: in vivo, rat; conditions: for Mechanical pain threshold, ratio to baseline: 1 hour
[2] = biological target: M1 (Muscarinic Cholinergic Rs) (Homo sapiens, UniProt P11229); assay: PDSP radioligand binding
Sequence of M1 (Muscarinic Cholinergic Rs) (P11229 whole entry): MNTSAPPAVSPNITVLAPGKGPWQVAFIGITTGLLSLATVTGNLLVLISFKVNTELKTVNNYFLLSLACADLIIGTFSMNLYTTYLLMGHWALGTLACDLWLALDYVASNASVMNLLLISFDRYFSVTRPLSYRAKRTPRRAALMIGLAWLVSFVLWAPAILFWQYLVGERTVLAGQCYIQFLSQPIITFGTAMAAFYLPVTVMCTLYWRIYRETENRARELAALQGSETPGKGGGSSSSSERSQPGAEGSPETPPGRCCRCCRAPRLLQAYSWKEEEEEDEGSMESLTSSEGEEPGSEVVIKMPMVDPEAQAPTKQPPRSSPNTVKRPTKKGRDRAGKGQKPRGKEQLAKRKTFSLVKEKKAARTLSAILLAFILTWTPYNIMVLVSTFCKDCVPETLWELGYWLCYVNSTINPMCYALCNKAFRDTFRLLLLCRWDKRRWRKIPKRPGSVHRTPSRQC

[3] = system: rats treated with cisplatin; assay: Reversal of cisplatin-induced neuropathic pain (von Frey mechanical pain threshold); format: in vivo, rat; conditions: 50 mg/kg oral
CB1 Receptor = biological target: T1, CB1 Receptor (Homo sapiens, UniProt P21554); assay: PDSP radioligand displacement, [^3H]CP55940; parameters: species or system rat; conditions: read-out: Binding constant Ki, CB1 Receptor
T1 construct: expressed in transfected cells
T1 sequence (P21554 whole entry): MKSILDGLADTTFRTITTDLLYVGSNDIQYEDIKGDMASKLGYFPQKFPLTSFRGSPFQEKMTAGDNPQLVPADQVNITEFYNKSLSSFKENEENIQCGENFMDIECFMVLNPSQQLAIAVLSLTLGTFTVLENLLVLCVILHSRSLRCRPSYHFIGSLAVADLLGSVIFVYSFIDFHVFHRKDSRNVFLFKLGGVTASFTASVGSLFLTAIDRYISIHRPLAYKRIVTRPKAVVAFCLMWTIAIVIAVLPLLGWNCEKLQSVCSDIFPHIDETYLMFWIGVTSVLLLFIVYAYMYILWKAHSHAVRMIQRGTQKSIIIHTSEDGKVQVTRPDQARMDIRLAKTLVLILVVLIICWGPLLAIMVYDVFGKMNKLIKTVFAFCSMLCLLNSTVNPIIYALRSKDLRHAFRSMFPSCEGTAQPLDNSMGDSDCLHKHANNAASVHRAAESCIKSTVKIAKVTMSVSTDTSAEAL

D1 (Dopamine Rs) = D1 (Dopamine Rs) (Homo sapiens, UniProt P21728); assay: PDSP radioligand binding
Sequence of D1 (Dopamine Rs) (P21728 whole entry): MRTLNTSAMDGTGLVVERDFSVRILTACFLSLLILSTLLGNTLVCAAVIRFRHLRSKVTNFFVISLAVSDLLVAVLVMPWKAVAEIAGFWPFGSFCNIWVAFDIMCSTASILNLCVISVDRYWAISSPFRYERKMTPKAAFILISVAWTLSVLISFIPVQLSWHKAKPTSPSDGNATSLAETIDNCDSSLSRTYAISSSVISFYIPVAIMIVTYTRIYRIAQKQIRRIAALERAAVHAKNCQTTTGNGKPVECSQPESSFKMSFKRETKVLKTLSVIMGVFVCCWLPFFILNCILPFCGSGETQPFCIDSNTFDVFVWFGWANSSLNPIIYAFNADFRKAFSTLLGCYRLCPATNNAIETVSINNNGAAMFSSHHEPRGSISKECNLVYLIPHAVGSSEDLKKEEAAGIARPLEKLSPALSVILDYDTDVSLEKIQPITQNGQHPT

[4] = biological target: BDZ site, GABA-A Receptor; assay: PDSP radioligand displacement, [^3H]Flunitrazepam; parameters: species or system rat; conditions: read-out: Binding constant Ki, BDZ site, GABA-A Receptor
[5] = system: rats treated with Complete Freund's Adjuvant; assay: Prevention of CFA-induced neuropathic pain; format: in vivo, rat; conditions: 50 mg/kg oral, four treatments at 12-hour intervals starting after CFA injection; FIG. 13
Protocol: (§1) This example illustrates that treatment of animals with DCUKA following insult, but prior to development of neuropathic pain, can prevent the development of the pain. Rats were treated with cisplatin or CFA, and mechanical pain threshold was measured, as described under Example 5.
Prevention of CFA-Induced Neuropathic Pain by DCUKA. After baseline measurement of the mechanical pain threshold, rats were treated with CFA as described earlier. Following the CFA injection, rats were given vehicle (canola oil/gelatin) (n=7) or 50 mg/kg DCUKA (n=7) orally by intragastric gavage. Rats then received three more treatments with vehicle or DCUKA at 12-hour intervals. At 60 hours after CFA treatment, the mechanical pain threshold was again tested.

ethanol dependent rats = assay: Operant responding for alcohol in ethanol vapor-exposed dependent rats; format: in vivo, rat; conditions: ethanol vapor-exposed rats; FIG. 18
Description: This example illustrates that ethanol dependent rats are motivated to work for ethanol reward during a period of forced abstinence and that DCUK-OEt reduces responding for the alcohol reward.
The methods used in this study are extensively described in (Vendruscolo et al., 2012). The rats were first trained to self-administer ethanol in an operant chamber. The rats were given free-choice access to alcohol (10% w/v) and water for 1 day in their home cages to habituate them to the taste of alcohol. The rats were then subjected to an overnight session in the operant chambers with access to one lever that delivered water (FR1). Food was available ad libitum during this training. After 1 day off, the rats were subjected to a 2 hour session (FR1) for 1 day and a 1 hour session (FR1) the next day, with one lever delivering alcohol. All of the subsequent sessions lasted 30 minutes, and two levers were available (left lever: water; right lever: alcohol). Once trained, the rats were made dependent by chronic, intermittent exposure to alcohol vapors (Gilpin et al., 2008). They underwent cycles of 14 hours of ethanol exposure (blood alcohol levels during vapor exposure ranged between 150 and 250 mg %) and 10 hours in the absence of ethanol vapor, during which behavioral testing for acute withdrawal occurred (i.e., 6-8 hours after vapor was turned off, when brain and blood alcohol levels were negligible). Nondependent rats were those not exposed to alcohol vapor. Pharmacological testing occurred after at least 2 months of vapor exposure, when full dependence was observed. DCUKA-OEt was administered i.p. at the doses specified in FIG. 18, sixty minutes prior to placing the animal in the operant chamber. The vehicle for DCUK-OEt was injected in certain animals as a control.

5-HT3 (Serotonin Rs) = 5-HT3 (Serotonin Rs) (Homo sapiens, UniProt P46098); assay: PDSP radioligand binding
Sequence of 5-HT3 (Serotonin Rs) (P46098 24-478): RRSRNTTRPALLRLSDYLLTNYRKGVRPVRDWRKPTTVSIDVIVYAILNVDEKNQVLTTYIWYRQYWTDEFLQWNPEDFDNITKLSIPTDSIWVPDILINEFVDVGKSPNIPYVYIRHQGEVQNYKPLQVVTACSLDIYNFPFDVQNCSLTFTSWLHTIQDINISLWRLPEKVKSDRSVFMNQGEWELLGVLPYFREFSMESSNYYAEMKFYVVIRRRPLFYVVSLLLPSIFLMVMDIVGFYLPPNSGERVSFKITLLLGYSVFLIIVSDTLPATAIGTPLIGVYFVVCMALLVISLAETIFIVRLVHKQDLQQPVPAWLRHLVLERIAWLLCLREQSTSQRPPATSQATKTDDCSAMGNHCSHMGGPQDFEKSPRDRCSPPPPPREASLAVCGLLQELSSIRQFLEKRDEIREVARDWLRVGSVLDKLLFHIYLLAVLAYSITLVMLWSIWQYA

5-HT1A (Serotonin Rs) = 5-HT1A (Serotonin Rs) (Homo sapiens, UniProt P08908); assay: PDSP radioligand binding
Sequence of 5-HT1A (Serotonin Rs) (P08908 whole entry): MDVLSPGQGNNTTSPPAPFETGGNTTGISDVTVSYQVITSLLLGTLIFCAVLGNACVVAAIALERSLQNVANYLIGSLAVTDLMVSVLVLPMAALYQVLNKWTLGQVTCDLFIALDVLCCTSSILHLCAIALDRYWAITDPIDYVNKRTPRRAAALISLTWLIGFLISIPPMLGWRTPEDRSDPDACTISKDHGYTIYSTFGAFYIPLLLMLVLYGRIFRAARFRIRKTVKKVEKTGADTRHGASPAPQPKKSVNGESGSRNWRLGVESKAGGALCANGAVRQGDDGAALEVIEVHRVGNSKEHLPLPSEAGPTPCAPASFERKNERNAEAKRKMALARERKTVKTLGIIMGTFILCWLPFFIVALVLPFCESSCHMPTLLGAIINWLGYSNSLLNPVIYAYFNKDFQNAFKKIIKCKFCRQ

[6] = biological target: M2 (Muscarinic Cholinergic Rs) (Homo sapiens, UniProt P08172); assay: PDSP radioligand binding
Sequence of M2 (Muscarinic Cholinergic Rs) (P08172 whole entry): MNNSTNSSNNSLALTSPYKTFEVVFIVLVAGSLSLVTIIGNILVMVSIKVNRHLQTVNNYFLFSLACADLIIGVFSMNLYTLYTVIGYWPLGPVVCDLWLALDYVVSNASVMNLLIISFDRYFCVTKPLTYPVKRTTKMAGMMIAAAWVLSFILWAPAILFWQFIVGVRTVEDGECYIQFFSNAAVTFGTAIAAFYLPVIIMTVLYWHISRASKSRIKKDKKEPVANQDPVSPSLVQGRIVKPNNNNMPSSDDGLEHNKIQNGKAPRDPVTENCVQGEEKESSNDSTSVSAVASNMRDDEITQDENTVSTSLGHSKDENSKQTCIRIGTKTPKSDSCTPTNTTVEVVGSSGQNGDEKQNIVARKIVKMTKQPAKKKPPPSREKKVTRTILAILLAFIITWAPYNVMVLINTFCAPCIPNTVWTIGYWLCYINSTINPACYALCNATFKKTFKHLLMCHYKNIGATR

[7] = system: rats treated with cisplatin; assay: Prevention of cisplatin-induced neuropathic pain; format: in vivo, rat; conditions: 50 mg/kg intragastric twice daily for 14 days starting 1 h after first cisplatin injection; FIG. 14
Protocol: as §1
Prevention of Cisplatin-Induced Neuropathic Pain by DCUKA. One day after baseline measurement of the mechanical pain threshold, rats were injected i.p. with cisplatin. Cisplatin injections were again given on days 4, 8, and 12. Starting one hour after the first cisplatin injection, rats were given 50 mg/kg DCUKA or vehicle via intragastric gavage twice daily for 14 days. After the last treatment (day 15) the mechanical pain threshold was again tested. The pain threshold was then tested once weekly for 4 weeks, with no further treatments.

EP2 (Prostaglandin Rs) = EP2 (Prostaglandin Rs) (Homo sapiens, UniProt P43116); assay: PDSP radioligand binding; conditions: Table 3, the 6th table r12c1; read-out: Ki, EP2 (lack of affinity)
Sequence of EP2 (Prostaglandin Rs) (P43116 whole entry): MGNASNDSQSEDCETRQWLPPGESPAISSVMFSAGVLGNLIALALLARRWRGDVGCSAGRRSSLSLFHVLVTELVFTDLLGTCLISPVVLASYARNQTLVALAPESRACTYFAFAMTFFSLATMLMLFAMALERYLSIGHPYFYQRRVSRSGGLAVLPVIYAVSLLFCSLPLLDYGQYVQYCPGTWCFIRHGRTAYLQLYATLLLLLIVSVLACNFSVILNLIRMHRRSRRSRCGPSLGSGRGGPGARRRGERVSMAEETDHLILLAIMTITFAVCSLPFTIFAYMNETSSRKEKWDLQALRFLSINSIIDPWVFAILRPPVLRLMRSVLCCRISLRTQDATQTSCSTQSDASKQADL

[8] = system: rats treated with streptozotocin; assay: Combination with aspirin, STZ-induced neuropathic pain (von Frey); format: in vivo, rat; conditions: FIG. 16
Protocol: After administration of streptozotocin (STZ) as described in Example 5, rats were tested for allodynia using a von Frey apparatus. Sixty minutes prior to testing, rats were divided into four groups. Group 1 received vehicle; group 2 received DCUKA; group 3 received aspirin; and group 4 received a combination of DCUKA and aspirin.

[9] = biological target: β1 (Adrenergic Rs (beta adrenergic)) (Homo sapiens, UniProt P08588); assay: PDSP radioligand binding
Sequence of β1 (Adrenergic Rs (beta adrenergic)) (P08588 whole entry): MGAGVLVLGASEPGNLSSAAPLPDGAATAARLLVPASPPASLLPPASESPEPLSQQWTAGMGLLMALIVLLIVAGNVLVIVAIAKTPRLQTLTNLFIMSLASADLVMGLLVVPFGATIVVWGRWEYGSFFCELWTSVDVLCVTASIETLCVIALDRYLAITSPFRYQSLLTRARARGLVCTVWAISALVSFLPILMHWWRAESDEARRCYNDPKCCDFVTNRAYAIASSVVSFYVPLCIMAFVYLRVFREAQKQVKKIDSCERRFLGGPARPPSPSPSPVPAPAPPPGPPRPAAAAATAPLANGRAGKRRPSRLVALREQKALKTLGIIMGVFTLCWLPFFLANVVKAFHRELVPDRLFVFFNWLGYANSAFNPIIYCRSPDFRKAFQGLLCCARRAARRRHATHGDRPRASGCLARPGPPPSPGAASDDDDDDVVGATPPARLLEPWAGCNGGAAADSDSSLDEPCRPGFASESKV

MOR (μ opiate receptor) = MOR (μ opiate receptor) (Homo sapiens, UniProt P35372); assay: PDSP radioligand binding, [^3H]DAMGO
Sequence of MOR (μ opiate receptor) (P35372 whole entry): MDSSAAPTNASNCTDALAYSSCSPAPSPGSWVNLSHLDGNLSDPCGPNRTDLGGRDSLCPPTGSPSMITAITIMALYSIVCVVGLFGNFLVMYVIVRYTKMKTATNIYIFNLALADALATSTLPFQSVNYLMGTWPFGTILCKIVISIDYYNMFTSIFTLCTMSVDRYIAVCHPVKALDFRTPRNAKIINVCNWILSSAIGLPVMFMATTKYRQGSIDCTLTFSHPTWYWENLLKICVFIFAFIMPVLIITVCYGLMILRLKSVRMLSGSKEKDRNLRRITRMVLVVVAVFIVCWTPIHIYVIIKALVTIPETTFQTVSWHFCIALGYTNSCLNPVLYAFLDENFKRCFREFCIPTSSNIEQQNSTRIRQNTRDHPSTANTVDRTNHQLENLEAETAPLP

[10] = biological target: GABA site, GABA-A Receptor; assay: PDSP radioligand displacement, [^3H]Muscimol; parameters: species or system rat; conditions: read-out: Binding constant Ki, GABA site, GABA-A Receptor
[11] = system: rats treated with streptozotocin; assay: Reversal of streptozotocin-induced (diabetic) neuropathic pain (von Frey); format: in vivo, rat
5-HT2B (Serotonin Rs) = 5-HT2B (Serotonin Rs) (Homo sapiens, UniProt P41595); assay: PDSP radioligand binding
Sequence of 5-HT2B (Serotonin Rs) (P41595 whole entry): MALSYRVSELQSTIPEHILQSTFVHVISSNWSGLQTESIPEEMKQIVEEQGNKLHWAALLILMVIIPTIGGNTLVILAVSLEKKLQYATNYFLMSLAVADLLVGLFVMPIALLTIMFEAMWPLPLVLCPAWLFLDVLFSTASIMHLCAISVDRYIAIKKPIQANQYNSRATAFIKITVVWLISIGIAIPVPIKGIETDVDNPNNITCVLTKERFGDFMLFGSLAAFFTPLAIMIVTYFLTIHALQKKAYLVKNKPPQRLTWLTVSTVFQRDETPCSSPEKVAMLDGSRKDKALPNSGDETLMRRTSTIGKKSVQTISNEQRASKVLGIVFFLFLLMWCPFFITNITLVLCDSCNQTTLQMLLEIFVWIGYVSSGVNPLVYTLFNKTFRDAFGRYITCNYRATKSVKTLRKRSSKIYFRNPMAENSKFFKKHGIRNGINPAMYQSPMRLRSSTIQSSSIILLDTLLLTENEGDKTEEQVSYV

O=C(O)c1cc(NC(=O)N(c2ccccc2)c2ccccc2)c2c(Cl)cc(Cl)cc2n1 [DCUKA, 5,7-dichloro-4-(3,3-diphenylureido)quinoline-2-carboxylic acid]
Mechanical pain threshold, ratio to baseline ([1]; 48-60 h after CFA, 50 mg/kg oral, three experiments combined, FIG. 7): a level not significantly different from the baseline level | Mechanical pain threshold, ratio to baseline ([1]; 48 h after CFA, 50 mg/kg, DCUKA n=17, BCUKA n=6, FIG. 8): reversed the mechanical pain threshold to a level not significantly different from baseline | Doses that significantly reversed the CFA-induced decrease of mechanical pain threshold ([1]; oral, 60 min, meta-analysis of five experiments, FIG. 9): ≥ 30 mg/kg | Ki [2]: > 10 µM | Mechanical pain threshold, ratio to baseline ([3]; cisplatin i.p. 7 mg/kg total, day 14, 1 and 2 hours, FIG. 6): significantly reversed the drop in mechanical pain threshold | Mechanical pain threshold, ratio to pre-cisplatin baseline ([3]; rats, 1 hour after dosing, six experiments combined, FIG. 5): increases the mechanical pain threshold to control levels | Ki (CB1 Receptor): 11 ± 2.7 µM | Ki (D1 (Dopamine Rs)): > 10 µM | Ki [4]: > 10 µM | Mechanical pain threshold at 60 hours after CFA, ratio to baseline [5]: the threshold was not reduced | Alcohol self-administration compared to baseline (ethanol dependent rats): no significant effect on repressing alcohol self-administration | Ki (5-HT3 (Serotonin Rs)): > 10 µM | Ki (5-HT1A (Serotonin Rs)): > 10 µM | Ki [6]: > 10 µM | Mechanical pain threshold (paw withdrawal threshold) over days [7]: no statistically significant decrease of pain threshold compared to the pre-cisplatin baseline | Ki (EP2 (Prostaglandin Rs)): > 10 µM | Effect on allodynia, combination of DCUKA and aspirin ([8]; DCUKA 12.5 mg/kg plus aspirin 25 mg/kg): completely reverse the hyper-responsiveness | Effect on allodynia, alone ([8]; DCUKA 12.5 mg/kg, 60 min before test): do not have any significant effect on allodynia | Ki [9]: > 10 µM | Ki (MOR (μ opiate receptor)): > 10 µM | Ki [10]: 6.6 ± 1.8 µM | Mechanical pain threshold, ratio to baseline ([11]; 14 days after STZ, 40 or 50 mg/kg oral, 90 minutes, three experiments combined, FIG. 10): reversed to the baseline level | Difference between 50 mg/kg DCUKA and 0 mg/kg DCUKA in ratio of mechanical pain threshold to pre-STZ threshold ([11]; Fisher's LSD, p<0.0001, FIG. 10): 0.60 | Doses that reversed the effect of STZ on pain threshold back to baseline ([11]; oral, 90 minutes, meta-analysis of four experiments, FIG. 11): ≥ 30 mg/kg | Ki (5-HT2B (Serotonin Rs)): > 10 µM
